Experiment [1] deals with Mouse TREK-1. The conditions noted are these: whole cell, voltage ramp from holding potential -80 mV, room temperature; 0.8 mM chloroform, 1 mM halothane, 2 mM isoflurane, 0.6 mM diethyl ether (Figs. 1-3). The procedure: (§1) As performed herein, COS cells were seeded at a density of 20,000 cells per 35 mm dish 24 hours prior to transfection. Cells were transfected by the DEAE dextran protocol (1 µg DNA per plate). Mouse TREK-1 (GenBank Accession No. U73488), human TASK (GenBank Accession No. AF006823) and mouse TRAAK (GenBank Accession No. AF056492) fragments were amplified by polymerase chain reaction (PCR) and subcloned into the pIRES-CD8 vector. Transfected cells were visualized 48 hours after transfection using the anti-CD8 antibody coated beads method. For whole cell and excised patch experiments, the internal solution was 150 mM KCl, 3 mM MgCl2, 5mM EGTA and 10 mM HEPES at pH 7.2 with KOH and the external medium contained 150 mM NaCl, 5 mM KCL, 3 mM MgCl2, 1 mM CaCl2, 10 mM HEPES at pH 7.4 with NaOH. Cells were continuously superfused with a microperfusion system during the time course of the experiments (0.1 ml/min) performed at room temperature. A RK300 patch clamp amplifier (Biologic, Grenoble, France) was used for whole cell as well as single channel recordings. Ionic currents were monitored and recorded continuously using a DAT recorder (Biologic, Grenoble, France). Subsequently, data were replayed and sampled using pClamp software. Data analysis were performed using clampfit (pClamp) for whole cell recording as well as Biopatch (Biologic) software for single channel recordings. Membrane capacitance was measured during a […] hyperpolarizing step from a holding potential of -80 mV.
(§2) General anesthetics were directly dissolved in saline solutions. All experiments were performed at room temperature (24°C). Solutions were prepared every 3 hours in gas-tight bottles as stock solutions (calculated concentrations of 5 10 mM). Serial dilutions were prepared just prior to the electrophysiological experiment. 2.5 ml of each experimental solution at the desired concentration was placed in a syringe connected to the experimental superfusion system. The electrophysiological measurements were performed within 45 minutes.
(§3) The actual concentrations of anesthetics were subsequently determined by means of a gas chromatography method (HP 6890 equipped with a DB624 column) using FID detection. Sampled (2.5 ml of solution) were collected prior to (t0) and after perfusion (t45) through the experimental setup. Solutions were collected using gas impermeable tubing and stored in sealed glass containers at 4°C for subsequent analysis. Samplings and measurements were performed in duplicate. […] In the dose effect curves, the threshold concentrations were estimated as concentrations producing an increase higher than 10% in current amplitude.

Experiment [2] has as its system human TASK. As to conditions: whole cell, voltage ramp from holding potential -80 mV, room temperature; 0.8 mM chloroform, 1 mM halothane, 2 mM isoflurane, 0.6 mM diethyl ether (Figs. 1-3). The procedure: as §1, §2, §3
In experiment [3] the test system is mouse TRAAK. Kind of experiment: Whole cell patch clamp of transfected COS cells expressing TRAAK. Format: cell-based. The conditions noted are these: voltage ramp from holding potential -80 mV, room temperature, 0.8 mM chloroform, 1 mM halothane, 2 mM isoflurane, 0.6 mM diethyl ether (Figs. 1-3). On the procedure: (§4) Subsequently, data were replayed and sampled using pClamp software.
General anesthetics were directly dissolved in saline solutions. All experiments were performed at room temperature (24°C). […] The electrophysiological measurements were performed within 45 minutes.
as §3
In general terms: Patch clamp records ionic current or voltage across a cell membrane.

Experiment [4] concerns human TREK-1 channel. The experiment is described as follows: Whole cell patch clamp of transiently transfected COS cells expressing human TREK-1. Format: cell-based.
Excerpt: The functional properties of the human TREK-1 channel were studied on the basis of transfected COS cells temporarily expressing the protein. Like the murine channel, the human channel is selective for potassium and is activated by cis-unsaturated fatty acids, volatile anesthetics and by stretching of the plasma membrane. The currents are recordings in the whole-cell configuration of the patch-clamp technique (imposed potential gradient from -130 to +100 mV). The inverse potential of the currents follow the equilibrium potential of potassium when the extracellular concentration of potassium ions climbs from 5 to 155 mM. […] When a pressure of -66 mmHg is applied on the membrane, the TREK-1 currents are activated in a reversible manner.
as §4

The subject of experiment [5] is COS cells expressing TREK-1. As to conditions: 0.8 mM chloroform; not in mock-transfected cells, n = 5.
Procedure: As performed herein, COS cells were seeded at a density of 20,000 cells per 35 mm dish 24 hours prior to transfection. Cells were transfected by the DEAE dextran protocol (1 µg DNA per plate). […] Transfected cells were visualized 48 hours after transfection using the anti-CD8 antibody coated beads method. For whole cell and excised patch experiments, the internal solution was 150 mM KCl, 3 mM MgCl2, 5mM EGTA and 10 mM HEPES at pH 7.2 with KOH and the external medium contained 150 mM NaCl, 5 mM KCL, 3 mM MgCl2, 1 mM CaCl2, 10 mM HEPES at pH 7.4 with NaOH. Cells were continuously superfused with a microperfusion system during the time course of the experiments (0.1 ml/min) performed at room temperature. A RK300 patch clamp amplifier (Biologic, Grenoble, France) was used for whole cell as well as single channel recordings. Ionic currents were monitored and recorded continuously using a DAT recorder (Biologic, Grenoble, France). Subsequently, data were replayed and sampled using pClamp software. […] Membrane capacitance was measured during a 10 V hyperpolarizing step from a holding potential of -80 mV. […]
General anesthetics were directly dissolved in saline solutions. […] Solutions were prepared every 3 hours in gas-tight bottles as stock solutions (calculated concentrations of 5 10 mM). […]

On to `CCOCC` [Diethyl ether, diethyl ether], for which the “effect on TREK-1 K+ current” value in experiment [1] is “opened”. Besides, in experiment [2], the “effect on TASK K+ current” value was “decreased”. Moreover, the “effect on TRAAK K+ current” value in experiment [3] is recorded as “did not affect”.

Consider `FC(F)OC(Cl)C(F)(F)F` (stereo not drawn) [Isoflurane, isoflurane], for which the “effect on TREK-1 K+ current” value in experiment [1] was “activated”. Besides, the “effect on TASK K+ current” value in experiment [2] is given as “activated”. For the same compound, in experiment [3], the “effect on TRAAK K+ current” value is reported as “without altering”.

Turning to `CCCCC/C=C\C/C=C\C/C=C\C/C=C\CCCC(=O)O` [arachidonic acid], the “effect on human TREK-1 currents” value in experiment [4] (arachidonic acid 10 µM in the bath) is “induced activation”.

For `ClC(Cl)Cl` [chloroform], the “effect on TREK-1 K+ current” value in experiment [1] is “strongly and reversibly activated”. Further, the “effect on TASK K+ current” value in experiment [2] is given as “slightly depressed”. The “effect on TRAAK K+ current” value in experiment [3] was “did not effect”. Besides, the “effect on membrane potential of COS cells expressing TREK-1” value in experiment [5] was “reversibly and reproducibly hyperpolarized”.

With `FC(F)(F)C(Cl)Br` (stereo not drawn) [halothane], the “effect on TREK-1 K+ current” value in experiment [1] was “opened”. Moreover, in experiment [2], the “effect on TASK K+ current” value is given as “opened”. Besides, in experiment [3], the “effect on TRAAK K+ current” value is on record as “not TRAAK, were opened”. Besides, the “effect on human TREK-1 currents” value in experiment [4] (concentrations employed in general anesthesia) is “induced activation”.
